Assay results reported in paper PMC5610242, “Stapled peptide inhibitors of RAB25 target context-specific phenotypes in cancer” (Nature Communications, 2017).
Bridge positions count the residues as written; N and C are the ends. Square brackets hold non-standard residues; d marks the D form. Ends that are not written are not given here. Peptide text beside a SMILES is read from it. S5 = C=CCCC[C@](C)(N)C(=O)O; Nle = CCCC[C@H](N)C(=O)O; βAla = NCCC(=O)O

Assays:
RAB25 = molecular target: T1, RAB25 (Homo sapiens, UniProt P57735); assay: Fluorescence polarization binding of FITC-labeled RFP peptides to RAB25; details: FP, 30 min room temperature
T1 construct: GST-RAB25 (1–180) in pET41 Ek/LIC; made in house; host or cells: E. coli BL21
T1 sequence (P57735 1-180): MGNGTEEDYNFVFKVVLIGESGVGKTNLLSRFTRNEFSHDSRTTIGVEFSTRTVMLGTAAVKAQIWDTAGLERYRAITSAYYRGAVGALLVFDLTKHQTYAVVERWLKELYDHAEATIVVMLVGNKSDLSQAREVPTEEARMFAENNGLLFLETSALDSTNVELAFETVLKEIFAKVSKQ
Experimental: (§1) Fluorescence polarization assays were performed with for GST-RAB25 and GST-RAB11a to quantify binding to FITC-labeled unmodified and stapled RFP peptides. Initial fluorescence polarization measurements for RFP1−RFP13 were made by incubating FITC-RFP peptides (25 nM) with threefold dilutions of a given protein in FP buffer, consisting of 20 mM Tris pH 8.0, 150 mM NaCl, 5 mM MgCl2, 2 mM DTT, 10 μM GTP and 2% glycerol. Dilutions and incubations were performed in 96-well, black flat-bottom plates (Nunc) to a total volume of 100 μL, and equilibrated at room temperature for 30 min. Polarization was measured on a Spetramax-M5 multi-label plate reader (Molecular Devices) with λ ex = 485 nm and λ em = 525 nm. Polarization values were determined using the equation: P = (V − H)/(V + H), where P denotes polarization, V denotes vertical emission intensity and H represents horizontal emission intensity. Fraction bound was calculated using the equilibrium maximum polarization value obtained for a given protein among ligands, to which background-subtracted fluorescence polarization values were internally normalized. Fluorescence polarization measurements for FITC-RFP14, 24, 26, 31, and 32 were performed as detailed above with the exception that 10 nM FITC-ligand was used.

[1] = molecular target: T2, RAB11a (activated Q70L mutant) (Homo sapiens, UniProt P62491, Q70L); assay: Fluorescence polarization binding of FITC-labeled RFP peptides to RAB11a; details: FP, 30 min room temperature
T2 construct: GST-RAB11a (1–173, Q70L mutant) in pGEX5x-1; made in house; host or cells: E. coli BL21
T2 sequence (P62491 1-173 Q70L): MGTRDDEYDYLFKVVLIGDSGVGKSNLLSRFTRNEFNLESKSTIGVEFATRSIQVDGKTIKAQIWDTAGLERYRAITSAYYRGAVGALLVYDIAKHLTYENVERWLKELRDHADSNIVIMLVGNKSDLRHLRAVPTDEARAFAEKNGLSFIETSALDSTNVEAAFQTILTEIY
Experimental: as §1

[2] = molecular target: T3, H6-RAB25:bio-RFP14 complex (Homo sapiens, UniProt P57735); assay: ALPHAscreen competitive inhibition of RAB25:RFP14 complex formation; type: binding; details: H6-RAB25 0.2 μM and bio-RFP14 0.2 μM, mean with 95% C.I., triplicate
T3 construct: His6-RAB25 (1–180) in pET28; made in house; host or cells: E. coli BL21
T3 sequence (P57735 1-180): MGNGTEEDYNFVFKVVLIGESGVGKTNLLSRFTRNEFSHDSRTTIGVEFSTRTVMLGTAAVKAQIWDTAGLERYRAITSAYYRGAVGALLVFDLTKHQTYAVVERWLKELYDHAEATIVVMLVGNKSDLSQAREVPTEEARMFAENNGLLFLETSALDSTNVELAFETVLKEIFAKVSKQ

[3] = Circular dichroism spectroscopy and thermal denaturation; type: physicochemical; details: 50 μM peptide in deionized water, 190–260 nm, room temperature
Experimental: Circular dichroism spectroscopy experiments were performed on a Jasco J-170 using a quartz cuvette (path length: 0.1 cm). Peptides were dissolved to 50 μM in deionized water and CD measurements were recorded at one nm increments between 190 and 260 nm, at room temperature. Thermal denaturation experiments were performed by recording CD absorbance at 222 nm at one-degree increments from 10 to 90 °C using a thermostat-controlled cuvette chamber. Raw denaturation data were fit to sigmoidal curves with Prizm 5 software, and the half-maximal temperature was reported as the peptide T m.

[4] = system: all cell lines tested (HEY, MCF7, MDA-MB231); assay: Toxicity seen in wound healing studies; type: cell-based; details: 10 μM
Experimental: Cells were seeded at a density of 5000–7000 cells for HEY and MDA-MB231 or 15,000 cells for MCF7 on each side of an Ibidi culture insert (Ibidi, Munich, Germany), with a 500 μm separation between each side of the well, and allowed to grow for 24 h to attain a compact monolayer. Cells were pretreated with, or without, RFP peptides (10 μM) or DMSO control for 12 h before removal of the insert, and following removal of the insert cells were incubated in RFP-containing media or DMSO control for the duration of wound closure. Cells were photographed using a Life Technologies EVOS XL Core imaging system 4× or a Nikon DS camera connected to a Nikon Eclipse Ti microscope objective at insert removal (0 h) and when wound closure was complete under control conditions. Experiments were performed in duplicate and a minimum of four fields of the injury were photographed and used for quantification.

CC[C@H](C)[C@H](NC(=O)[C@H](CCCNC(=N)N)NC(=O)[C@H](C)NC(=O)[C@H](C)NC(=O)[C@]1(C)CCCC=CCCC[C@](C)(NC(=O)[C@H](CC(N)=O)NC(=O)[C@H](CCC(N)=O)NC(=O)[C@H](CC(C)C)NC(=O)[C@H](CCCNC(=N)N)NC(=O)[C@H](Cc2ccccc2)NC(=O)[C@H](CC(N)=O)NC(=O)[C@@H](NC(=O)[C@H](CCCNC(=N)N)NC(=O)CCNC(=O)[C@@H](N)Cc2c[nH]c3ccccc23)[C@@H](C)CC)C(=O)N[C@@H]([C@@H](C)CC)C(=O)N[C@@H](CC(=O)O)C(=O)N[C@@H](CCCNC(=N)N)C(=O)N1)C(=O)N[C@@H](C)C(=O)N[C@@H](CCC(=O)O)C(=O)N[C@H](C(=O)N[C@@H](CC(N)=O)C(=O)N1CCC[C@H]1C(=O)N[C@@H](CO)C(=O)N[C@H](C(=O)N[C@@H](CC(C)C)C(=O)N[C@@H](CCC(=O)O)C(=O)N[C@H](C(=O)N[C@@H](CCCCN)C(N)=O)C(C)C)[C@@H](C)CC)[C@@H](C)O [RFP31] (H-W[βAla]RINFRLQN[S5]IDR[S5]AARIAETNPSILEVK-NH2; staple 11-15)
Kd (RAB25; 10 nM FITC-ligand, GST-RAB25, FP buffer pH 8.0 with 10 μM GTP, mean with 95% C.I., triplicate, read-out: apparent Kd (95% C.I.) RAB25): > 5 µM
Kd ([1]; 10 nM FITC-ligand, GST-RAB11a (1–173, Q70L), FP buffer pH 8.0 with 10 μM GTP, mean with 95% C.I., triplicate, read-out: apparent Kd (95% C.I.) RAB11a): > 5 µM
IC50 [2]: 3.3 µM

KQEEINFRLQDYIDRIIVAIMETNPSILEVK-NH2 (C-terminus assumed) [RFP3]
binding to RAB25 (in words) (RAB25; 25 nM FITC-RFP peptide): micromolar affinities
CD spectrum, secondary structure [3]: β-sheet
binding to RAB11a (in words) ([1]; 25 nM FITC-RFP peptide): micromolar affinities

CCCC[C@H](NC(=O)[C@@H](NC(=O)[C@H](CCCNC(=N)N)NC(=O)[C@@H](NC(=O)[C@@H](NC(=O)[C@]1(C)CCCC=CCCC[C@](C)(NC(=O)[C@H](CC(N)=O)NC(=O)[C@H](CCC(N)=O)NC(=O)[C@H](CC(C)C)NC(=O)[C@H](CCCNC(=N)N)NC(=O)[C@H](Cc2ccccc2)NC(=O)[C@H](CC(N)=O)NC(=O)[C@@H](NC(=O)[C@H](CCCNC(=N)N)NC(=O)CCNC(=O)[C@@H](N)Cc2c[nH]c3ccccc23)[C@@H](C)CC)C(=O)N[C@@H]([C@@H](C)CC)C(=O)N[C@@H](CC(=O)O)C(=O)N[C@@H](CCCNC(=N)N)C(=O)N1)[C@@H](C)CC)C(C)C)[C@@H](C)CC)C(=O)N[C@@H](CCC(=O)O)C(=O)N[C@H](C(=O)N[C@@H](CC(N)=O)C(=O)N1CCC[C@H]1C(=O)N[C@@H](CO)C(=O)N[C@H](C(=O)N[C@@H](CC(C)C)C(=O)N[C@@H](CCCNC(=N)N)C(=O)N[C@H](C(=O)N[C@@H](CCCCN)C(N)=O)C(C)C)[C@@H](C)CC)[C@@H](C)O [RFP26] (H-W[βAla]RINFRLQN[S5]IDR[S5]IVRI[Nle]ETNPSILRVK-NH2; staple 11-15)
toxicity in wound healing studies [4]: considerable toxicity
